From patent US20070101445A1, “Transgenic mice carrying the HP-2 gene and uses as models for vascular diseases” (priority 2005, published 2007)

Assays:
[1] = test system: Hp 0 mice; assay: Chronic supplementation with vitamin E, renal hypertrophy in Hp 0 mice; assay type: in vivo, mouse
Procedure: (§1) Chronic supplementation with vitamin E. Wild-type or Hp 0 mice (n=5 in each group) were treated for 7 months with placebo (water) or vitamin E (Merck, racemic alpha-tocopherol acetate) at a concentration of 40 mg/kg/day administered daily in the drinking water from 4 weeks of age.
(§2) Preparation of renal tissue for morphometric and histochemical analysis. Mice were sacrificed with intraperitoneal injection of pentabarbitone sodium. Kidneys were excised and weighed and the half-middle portion was fixed in 4% buffered BP formaldehyde solution (Gadot, Netanya, Israel) and embedded in paraffin. For both the morphometric and histochemical analysis, there were four mice in each of the six groups (wild type, Hp 0, and Hp 2, with and without diabetes).
(§3) Statistical analysis. Values are reported as the mean±SEM. Comparisons between groups were performed using two-way ANOVA under a general linear model, with Hp phenotype as one factor and time, presence of diabetes, or treatment with vitamin E as the second factor. Pairwise comparisons were carried out using the Fisher's protected least significant difference (PLSD) test. A p-value of less than 0.05 was taken as being statistically significant. Statistical analyses were performed using the SPSS statistical software version 11.5 (Chicago, Ill.). […]

[2] = test system: Wild-type mice; assay: Chronic supplementation with vitamin E, renal mass in wild-type mice; assay type: in vivo, mouse; details: WT mice, 40 mg/kg/day vitamin E orally from 4 weeks, sacrificed at 8 months, mean±SEM, n=5
Procedure: as §1, §2, §3

CC(=O)Oc1c(C)c(C)c2c(c1C)CC[C@@](C)(CCC[C@H](C)CCC[C@H](C)CCCC(C)C)O2 (racemic) [Vitamin E, racemic alpha-tocopherol acetate]
RM/BM (renal mass normalized for body weight) ([1]; 40 mg/kg/day vitamin E orally from 4 weeks, sacrificed at 8 months, mean±SEM, n=5): 11.01 ± 0.24 mg/g | renal mass in Hp 0 animals receiving vitamin E compared to Hp 0 mice who did not receive vitamin E ([1]; vitamin E for 7 months): reduced | RM/BM (renal mass normalized for body weight) [2]: 11.42 ± 0.98 mg/g
